Experimental data: the supplement of paper PMC11451515

Tested on: NOMO1
Experiment: cell viability relative to DMSO control; higher = less cytotoxic
Conditions: 48 h
In short: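 NOMO1 or SEM cells were plated at 500 cells/well and P12-Ichikawa cells at 1000 cells/well in 1536-well plates (5 μl), after each leukemia line had been adapted for at least four passages in each medium. Pin dosing delivered library compounds in DMSO at 11 threefold concentrations, 47 μM to 0.79 nM. CellTiter-Glo One luminescence was read after 48 h at 37°C. Viability is reported as a per-plate percentage of DMSO wells, with cell-free wells as background.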

[1] = HPLM + 10% dialyzed FBS, 0.000781 µM
[2] = HPLM + 10% dialyzed FBS, 0.00234 µM
[3] = HPLM + 10% dialyzed FBS, 0.00702 µM
[4] = HPLM + 10% dialyzed FBS, 0.0211 µM
[5] = HPLM + 10% dialyzed FBS, 0.0632 µM
[6] = HPLM + 10% dialyzed FBS, 0.19 µM
[7] = HPLM + 10% dialyzed FBS, 0.569 µM
[8] = HPLM + 10% dialyzed FBS, 1.71 µM
[9] = HPLM + 10% dialyzed FBS, 5.12 µM
[10] = HPLM + 10% dialyzed FBS, 15.4 µM
[11] = HPLM + 10% dialyzed FBS, 46.1 µM
[12] = RPMI 5 mM glucose + 10% FBS, 0.000781 µM
[13] = RPMI 5 mM glucose + 10% FBS, 0.00234 µM
[14] = RPMI 5 mM glucose + 10% FBS, 0.00702 µM
[15] = RPMI 5 mM glucose + 10% FBS, 0.0211 µM
[16] = RPMI 5 mM glucose + 10% FBS, 0.0632 µM
[17] = RPMI 5 mM glucose + 10% FBS, 0.19 µM
[18] = RPMI 5 mM glucose + 10% FBS, 0.569 µM
[19] = RPMI 5 mM glucose + 10% FBS, 1.71 µM
[20] = RPMI 5 mM glucose + 10% FBS, 5.12 µM
[21] = RPMI 5 mM glucose + 10% FBS, 15.4 µM
[22] = RPMI 5 mM glucose + 10% FBS, 46.1 µM
[23] = RPMI 5 mM glucose + 10% dialyzed FBS, 0.000781 µM
[24] = RPMI 5 mM glucose + 10% dialyzed FBS, 0.00234 µM
[25] = RPMI 5 mM glucose + 10% dialyzed FBS, 0.00702 µM
[26] = RPMI 5 mM glucose + 10% dialyzed FBS, 0.0211 µM
[27] = RPMI 5 mM glucose + 10% dialyzed FBS, 0.0632 µM
[28] = RPMI 5 mM glucose + 10% dialyzed FBS, 0.19 µM
[29] = RPMI 5 mM glucose + 10% dialyzed FBS, 0.569 µM
[30] = RPMI 5 mM glucose + 10% dialyzed FBS, 1.71 µM
[31] = RPMI 5 mM glucose + 10% dialyzed FBS, 5.12 µM
[32] = RPMI 5 mM glucose + 10% dialyzed FBS, 15.4 µM
[33] = RPMI 5 mM glucose + 10% dialyzed FBS, 46.1 µM

| SMILES | cell viability [1] [%] | cell viability [2] [%] | cell viability [3] [%] | cell viability [4] [%] | cell viability [5] [%] | cell viability [6] [%] | cell viability [7] [%] | cell viability [8] [%] | cell viability [9] [%] | cell viability [10] [%] | cell viability [11] [%] | cell viability [12] [%] | cell viability [13] [%] | cell viability [14] [%] | cell viability [15] [%] | cell viability [16] [%] | cell viability [17] [%] | cell viability [18] [%] | cell viability [19] [%] | cell viability [20] [%] | cell viability [21] [%] | cell viability [22] [%] | cell viability [23] [%] | cell viability [24] [%] | cell viability [25] [%] | cell viability [26] [%] | cell viability [27] [%] | cell viability [28] [%] | cell viability [29] [%] | cell viability [30] [%] | cell viability [31] [%] | cell viability [32] [%] | cell viability [33] [%] |
| --- | --- | --- | --- | --- | --- | --- | --- | --- | --- | --- | --- | --- | --- | --- | --- | --- | --- | --- | --- | --- | --- | --- | --- | --- | --- | --- | --- | --- | --- | --- | --- | --- | --- |
| COC[C@H]1OC(=O)C2=COC3=C2[C@@]1(C)\C4=C(\[C@@H]5CC[C@H](O)[C@@]5(C)C[C@H]4OC(C)=O)C3=O | 106 | 112 | 117 | 111 | 132 | 134 | 118 | 113 | 88.6 | 93.1 | 70.6 | 98.9 | 111 | 117 | 107 | 123 | 114 | 117 | 109 | 110 | 102 | 87.6 | 88.2 | 103 | 110 | 106 | 118 | 126 | 115 | 119 | 97.9 | 94 | 83.5 |
| CNCC(O)C(O)C(O)C(O)CO.O=C(O)c1ccc(-c2cc3cccnc3c(-c3ccc4nonc4c3)n2)cc1 | 105 | 110 | 115 | 111 | 121 | 126 | 112 | 122 | 112 | 110 | 76.7 | 118 | 119 | 119 | 118 | 115 | 112 | 125 | 106 | 117 | 119 | 102 | 99 | 105 | 124 | 120 | 114 | 111 | 127 | 111 | 111 | 118 | 74.4 |
| OC(COC1=C2C(=O)\C=C(/OC2=CC=C1)C([O-])=O)COC3=C4C(=O)\C=C(/OC4=CC=C3)C([O-])=O | 95.5 | 86.8 | 93.7 | 94.2 | 94.8 | 80.8 | 96.3 | 86.1 | 86.3 | 94.5 | 93 | 72.6 | 74.5 | 74.7 | 76.4 | 80.4 | 74.5 | 74.8 | 83.3 | 71 | 80.3 | 84.8 | 75.4 | 82 | 73.3 | 76.4 | 86 | 72.7 | 89.1 | 88.6 | 87.9 | 86 | 90.4 |
| CN(C)C[C@@H]1CC[N]2C=C(C3=C2C=CC=C3)C/4=C(/C(=O)NC4=O)C5=C[N](CCO1)C6=C5C=CC=C6 | 88.8 | 111 | 109 | 96.6 | 102 | 91.4 | 94 | 88.7 | 95.4 | 85.3 | 27.7 | 98.3 | 85.9 | 89.3 | 87.4 | 91.7 | 92.9 | 93 | 87.5 | 86.1 | 83.5 | 73.3 | 90.6 | 84.2 | 99.8 | 93.4 | 99.6 | 97.3 | 92.3 | 85.8 | 83.7 | 77.7 | 67.7 |
| NC(=O)c1cccc(N)c1 | 116 | 107 | 119 | 114 | 135 | 134 | 124 | 130 | 126 | 125 | 101 | 97 | 104 | 114 | 120 | 104 | 123 | 105 | 97.8 | 109 | 113 | 127 | 102 | 104 | 114 | 116 | 109 | 133 | 116 | 110 | 112 | 106 | 115 |
| OC1=CC=C(C=C1)\C2=C\C(=O)C3=C(O2)C=C(O)C=C3O | 102 | 111 | 104 | 107 | 103 | 126 | 89.2 | 107 | 98.1 | 84.1 | 57.2 | 108 | 112 | 108 | 108 | 105 | 105 | 97.9 | 96 | 107 | 88.9 | 53.6 | 108 | 101 | 114 | 104 | 104 | 102 | 116 | 99.3 | 97.8 | 80 | 54.6 |
| Cc1c(C(=O)Nc2cccc(C(F)(F)F)c2)cc(-c2ccccc2)n1CCCN1CCOCC1 | 104 | 99.5 | 112 | 109 | 97.2 | 113 | 129 | 116 | 105 | 95.9 | 82.5 | 107 | 105 | 111 | 100 | 102 | 101 | 96.5 | 92.4 | 91.7 | 96.4 | 95.2 | 115 | 107 | 111 | 109 | 108 | 117 | 111 | 111 | 109 | 91.4 | 73.3 |
